Test results from patent US7432253B2, “Phosphoepoxides, method for making same and uses” (Institut National de la Sante et de la Recherche Medicale, priority 1998, dated 2008).

What was measured:
mice = assay: Toxicity of Epox-PP (sodium salt) in mice, intravenous injection; type: in vivo
Protocol: Five 30 g mice received an intravenous injection (caudal vein) of 300 μl of PBS buffer containing 1 mg of Epox-PP (sodium salt). […] Toxicity is thus less than 20% for a dose of 33.4 mg of Epox-PP (sodium salt) per kilogram of animal body weight.

Tγ9δ2 lymphocyte clone = assay: Induced cytotoxicity test of a Tγ9δ2 lymphocyte clone; type: cell-based; conditions: for concentration at which the compound is active: stimulation of specific cytotoxic activity
Tγ9δ2 lymphocytes = assay: Bioactivity (induced cytotoxicity test) after transient chemical treatment; type: cell-based; parameters: key: + indicates detection of activity upon Tγ9δ2 lymphocytes; − indicates that no activity could be detected; conditions: diluted 1:30 from 5 to 10 μM solutions
Protocol: The bioactivity of the compound according to the invention Epox-PP (obtained as stated in Example 1) is compared with that of a stock preparation of Tubag natural phosphoantigens obtained as described in WO 95/20673.
Bioactivity is measured by an induced cytotoxicity test as described in Example 6 using the compound to be tested diluted 1:30 from 5 to 10 μM solutions of the compounds.
Before bioactivity is measured, the compounds are subjected to a transient chemical treatment by being brought into contact with one of the following reagents: NaIO4 (5 mM); NaBH3CN (10 mM, pH 7); KMnO4 (1 mM); bromine water Br2, H2O (7 mM), followed by neutralization of the reagent.

human Tγ9δ2 lymphocytes [1] = conditions: prior art prenyl pyrophosphates, best results obtained; cited from earlier work
human Tγ9δ2 lymphocytes [2] = system: human Tγ9δ2 lymphocytes

Row | Substance | sign of shock or pyrogenicity (mice; 1 mg i.v. (caudal vein) per 30 g mouse) | variation in the weight of the mice (mice; 1 mg i.v. per 30 g mouse, during the study) | Toxicity (mice; dose of 33.4 mg per kilogram of animal body weight, i.v.) | mice still alive after 30 days (mice; five mice, 1 mg i.v. per 30 g mouse, 30 days) [mice] | concentration at which the compound is active (Tγ9δ2 lymphocyte clone) [nM] | Bioactivity after chemical treatment: KMnO4 (1 mM) (Tγ9δ2 lymphocytes; KMnO4 1 mM) | Bioactivity after chemical treatment: NaBH3CN (10 mM pH7) (Tγ9δ2 lymphocytes; NaBH3CN 10 mM pH 7) | Bioactivity after chemical treatment: NaIO4 (5 mM) (Tγ9δ2 lymphocytes; NaIO4 5 mM) | Bioactivity after chemical treatment: Br2, H2O (7 mM) (Tγ9δ2 lymphocytes; bromine water 7 mM) | Bioactivity after chemical treatment: none (Tγ9δ2 lymphocytes; no reagent) | active concentration relative to the compound from Example 1 (Tγ9δ2 lymphocyte clone; IPP versus Epox-PP) [times higher] | minimum concentration at which activity could be demonstrated (human Tγ9δ2 lymphocytes [1]) [µM] | minimum active concentration relative to natural phosphoantigens (human Tγ9δ2 lymphocytes [2]) [times higher]
1 | 3,4-epoxy-3-methyl-1-butyl diphosphate [Epox-PP (sodium salt)] | No sign of shock or pyrogenicity | no significant variation | less than 20% | 5 |  |  |  |  |  |  |  |  | 
2 | 3,4-epoxy-3-methyl-1-butyl diphosphate [Epox-PP] |  |  |  |  | ~20 | + | + | + | + | + |  |  | 
3 | isopentenylpyrophosphate [IPP] |  |  |  |  | ~3000 |  |  |  |  |  | 150 | ≥ 3 | ~1000
